The structures appear in SMILES notation.

The values that follow come from US20100311674A1, “PHARMACEUTICAL COMPOSITIONS WITH A MECHANISM OF MULTI-TARGET RECEPTOR RETROACTION FOR TREATING DEPRESSION” (Yu-Fen Chi, priority 2007, published 2010).

The test system of assay [1] is unpredictable long-term stimulus model. As to the kind of experiment: Rat swimming by compulsion, unpredictable long-term stimulus model (Experiment 8). Type of assay: in vivo. The note with it: 2 mg/kg/d into the stomach, 24 days; 1 h after dose; last 5 minutes. On the procedure: (§1) Unpredictable long-term stimulus model: Health Wistar male rats, secondary, 240˜270 g of body weight, are purchased from Beijing Vital River Experimental Animal Technology Ltd. Co. (The quality certificate number: SOCK (JING) 2002-2003).
(§2) The above pharmaceuticals are prepared with 0.5% of sodium carboxymethylcellulose (CMC-Na) for feeding into the stomach. Benzylpenicillin sodium for injection is the product of North China Pharmaceutical Huasheng Co. Ltd. (Lot: S0511204), and norepinephrine (NE) and 5-hydrotryptamine (5-HT) standards are the products of Sigma Co. Other reagents are all marketed.
(§3) 8.4.1 Group division and administration of drug: The rats are grouped randomly into 6 groups. 1. False therapy group; 2. model group (control); 3. high dose of Embodiment 4 (60 mg/kg/d); 4. middle dose of Embodiment 4 (30 mg/kg/d); 5. low dose of Embodiment 4 (15 mg/kg/d); and 6. […]
8.5.3 Rat swimming by compulsion: This experiment is proceeded for two days after the last administration of drug. […] After 1 hour of administration of drug, the rat is placed in the tank, and the time of non-movement of the rat for the last 5 minutes is recorded.
(§4) 8.6 Statistic calculation: The experimental data are represented as […], and the experimental result is calculated as ANOVA by SPSS 11.5 statistic software.

Assay [2] has as its system ICR mice. As to the kind of experiment: Mouse tail-hanging test of the debris mixture (Experiment 11). It counts as in vivo. The note with it: 3 mg/kg P.O. 7 days; 1 h after last dose; last 5 of 6 min. The source says:
Nine (9) kg of the remained ginseng debris, 7 kg of the remained liquorice debris and 0.9 kg of the jujuba debris from the Embodiments 1 and 4 extraction procedures are collected, dried, pulverized, and mixed well for obtaining the debris mixture containing the trace amount of ginsenoside Rg1 and Rb1, glycyrrhizic acid and jujuba cAMP. The control experiment of examining the influence of the debris in the mouse tail-hanging test is proceeded. 11.1 Experimental animals: ICR mice, male, 22.0±2 g of body weight, secondary, are provided by the Experimental Animal Science Department of Capital Medical University, Beijing. 11.2 Experiment pharmaceuticals: The debris mixture is provided by Beijing Wonner Biotech. […] High dose of debris mixture (160 mg/kg/d); 2. middle dose of debris mixture (80 mg/kg/d); and 3. low dose of debris mixture (40 mg/kg/d). 11.5.1 Group division and administration of drug: The mice are grouped randomly with 10 mice in each group. 1. […] The time of non-movement of the mouse for the last 5 minutes is recorded. 11.5.3 Statistic calculation: The experimental data are represented as X±SD, and the experimental result is calculated as ANOVA by SPSS 11.5 statistic software.

The test system of assay [3] is unpredictable long-term stimulus model. As to the kind of experiment: Volume test of drinking sucrose, unpredictable long-term stimulus model (Experiment 8). It counts as in vivo, rat. The note with it: 2 mg/kg/d into the stomach, 24 days; 1% sucrose for 1 hour. On the procedure:
as §1, §2, §3
8.5.5 Volume test of drinking sucrose: The sucrose-intake volume of the rats are compared. […] The drinking volumes are determined before the stimulus and after 3 weeks of the stimulus. […] The differences between the bottle weight before and after the rat drinking sucrose for 1 hour are measured and recorded, and the sucrose-drinking volume for each time is calculated. […]
as §4

Assay [4] deals with ICR mice. As to the kind of experiment: Mouse tail-hanging experiment (Experiment 9). It counts as in vivo. The method, then:
9.1 Experiment pharmaceuticals: The pharmaceutical of Embodiment 5 is provided by Beijing Wonner Biotech. […] Above-mentioned pharmaceuticals are prepared with physiological saline for feeding into the stomach. 9.2 Experimental animals: ICR mice, male, 20.0±1 g of body weight, secondary, are provided by the Experimental Animal Science Department of Capital Medical University, Beijing. The quality certificate number of mice is SOCK (DING) 2006-2008. […] The pharmaceuticals are fed into mouse's stomach once every day. After 1 hour of the last administration of drug on the eighth day, the mouse's tail (1 cm to the tail end) is taped on the horizontal support in an opened box, and the mouse represents the reversed hung status. The mouse head is away from the bottom of the opened box for about 10 cm, and the mouse is hung up for 6 minutes. The time of non-movement of the mouse for the last 5 minutes is recorded. 9.5 Statistic calculation: The experimental data are represented as X±SD, and the experimental result is calculated as one-way ANOVA by SPSS 11.5 statistic software.

The nature of assay [5]: Body weight measurement, unpredictable long-term stimulus model (Experiment 8). It counts as in vivo, rat. As to conditions: 2 mg/kg/d into the stomach, 24 days. On the procedure:
as §1, §2
8.4.1 Group division and administration of drug: The rats are grouped randomly into 6 groups. 1. False therapy group; 2. model group (control); 3. high dose of Embodiment 4 (60 mg/kg/d); 4. middle dose of Embodiment 4 (30 mg/kg/d); 5. low dose of Embodiment 4 (15 mg/kg/d); and 6. […] The test drugs and the positive control drug are prepared with 0.5% of CMC-Na for feeding into the stomach once every day.
Unpredictable long-term stimulus model: The rats in the control group eat and drink normally, and there is no stimulus performed. […]
as §4

As to `Fc1ccc([C@@H]2CCNC[C@H]2COc2ccc3c(c2)OCO3)cc1` [Paroxetine], the Time of non-movement in assay [1] is 31.38 ± 19.59 s; in assay [2], 38.37 ± 20.76 s; in assay [4] (3 mg/kg/d into the stomach, 1 h after last dose on the eighth day, last 5 of 6 min) it was 53.27 ± 20.02 s. In addition, the Sucrose-intake volume in assay [3] is listed as 26.29 ± 4.87 g. In addition, in assay [4] (high, middle and low doses of Embodiment 5, Paroxetine), the “Effect on accumulative time of non-movement, tail-hanging (in words)” value is recorded as “obviously decrease the accumulative time of non-movement”. The Increasing body weight in assay [5] is reported as 96.85 ± 9.30 g.
